The text below walks through data of publication PMC4875998, “Liposomal Systems as Nanocarriers for the Antiviral Agent Ivermectin” (International Journal of Biomaterials, 2016).

A short description of data set [1]: Cytotoxicity (methylene blue / MTS assay), CC50. The following applies: hamster, BHK cells.
Data set [2] is described as follows: Cytotoxicity (methylene blue / MTS assay), CC50. The following applies: African green monkey, Vero-118 cells.
Data set [3] in a line: Cytotoxicity (methylene blue / MTS assay), CC50. The following applies: mouse, RAW 264.7 cells.
The subject of a further data set is Yellow Fever. The following applies: in vitro; cited from earlier work.
The next data set deals with Vero-118 cells. Briefly: Cytotoxicity (methylene blue / MTS assay), CC50. The following applies: cell lines of Figure 6(b) / Table 2 (Vero-118, BHK, RAW).
The test system of a further data set is Japanese encephalitis. Set-up: method as in PMID 22535622. The following applies: in vitro; cited from earlier work.
For data set [4], the system named is tick-borne encephalitis viruses. The following applies: in vitro; cited from earlier work.
In a further data set the test system is Dengue Fever. Set-up: method as in PMID 22535622. The following applies: in vitro; cited from earlier work.
Another data set deals with Huh-7 cells. Briefly: Cytotoxicity, CC50. The following applies: read-out: Half maximal cytotoxic concentration (CC50) Huh-7; Huh-7 cells; value not marked with the 48 h footnote.
The nature of the next data set: Cytotoxicity, CC50. The following applies: human, Half maximal cytotoxic concentration (CC50) Huh-7, Huh-7 cells; value not marked with the 48 h footnote.
Data set [5] can be described thus: Cytotoxicity (methylene blue / MTS assay), CC50. The following applies: African green monkey, Vero-F cells.

`C[C@@]1(O)[C@H](O)[C@@H](CO)O[C@H]1n1ccc(N)nc1=O` [2-cmc, 2′-c-Methylcytidine]: the CC50 at 4 days in data set [1] turned out to be 238 µM; in data set [2], 117 µM; in data set [3], 37.6 µM.
For `CC[C@H](C)[C@H]1O[C@]2(CC[C@@H]1C)C[C@@H]1C[C@@H](C/C=C(\C)[C@@H](O[C@H]3C[C@H](OC)[C@@H](O[C@H]4C[C@H](OC)[C@@H](O)[C@H](C)O4)[C@H](C)O3)[C@@H](C)/C=C/C=C3\CO[C@@H]4[C@H](O)C(C)=C[C@@H](C(=O)O1)[C@]34O)O2` [Ivermectin, 22,23-dihydroavermectin B1], the CC50 at 4 days in [1] amounted to 1.5 µM; in [2] it was 5.7 µM; in data set [3] it was 0.8 µM; in [5] it was 23.6 µM. Further, the EC50 result with Yellow Fever is recorded as “subnanomolar range”; in the data set with Japanese encephalitis, “submicromolar”; in data set [4], “submicromolar”; in the data set on Dengue Fever, “submicromolar”. In the data set with Vero-118 cells, the “Times more cytotoxic in comparison to 2-cmc” value is listed as 10 times. The CC50 in the data set with Huh-7 cells is 10 µM; in the data set “Cytotoxicity, CC50”, 7.3 µM.
